Data as given in US8871753B2, “Macrocyclic compounds and their use as kinase inhibitors” (Incyte Corporation, priority 2008, dated 2014).
Counter-ions that a name gives are not always drawn. Like-named read-outs stand apart in the source and are kept apart here.

Tests used:
Type in all cases: biochemical
[1] = target: T1, human JAK1 (a.a. 837-1142) (Homo sapiens, UniProt P23458); test: In vitro JAK kinase assay (HTRF, phosphorylation of a biotinylated peptide), JAK1; conditions: read-out: JAK1 IC50
T1 construct: human JAK1 (a.a. 837-1142); His tag (N); made in house; host or cells: insect cells (baculovirus)
Procedure, shortened: (§1)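 Phosphorylation of a biotinylated peptide by the JAK kinase domain, detected by HTRF with Eu-Py20 and SA-APC. ATP was 90 μM for JAK1, 30 μM for JAK2 and 3 μM for JAK3. Reactions ran 1 h at room temperature and were stopped with EDTA, followed by 40 min antibody binding.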

[2] = target: T2, human JAK3 (a.a. 781-1124) (Homo sapiens, UniProt P52333); test: In vitro JAK kinase assay (HTRF, phosphorylation of a biotinylated peptide), JAK3
T2 construct: JAK3 (a.a. 781-1124); His tag (N); made in house; host or cells: insect cells (baculovirus)
Procedure, shortened: as §1

[3] = target: T3, Recombinant Human Anaplastic Lymphoma Kinase (Homo sapiens, UniProt Q9UM73); test: ALK HTRF kinase assay
T3 construct: purchased Invitrogen, Carlsbad, Calif
Procedure, shortened: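 Kinase activity of the recombinant human protein is measured on a biotinylated peptide, with a Eu-W1024 anti-phosphotyrosine antibody and streptavidin-allophycocyanin generating the homogeneous time-resolved fluorescence signal. Inhibition curves are fitted to yield IC50.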

[4] = target: T4, human JAK2 (a.a. 828-1132) (Homo sapiens, UniProt O60674); test: In vitro JAK kinase assay (HTRF, phosphorylation of a biotinylated peptide), JAK2
T4 construct: JAK2 (a.a. 828-1132); His tag (N); made in house; host or cells: insect cells (baculovirus)
Procedure, shortened: as §1

TYK2 = TYK2 (Homo sapiens, UniProt P29597); test: TYK2 kinase inhibition (Table A1)
[5] = Table B1, cells without percent sign
[6] = method AA1 (90 μM ATP) or AA2 (1000 μM ATP), not stated per value
[7] = method AA1 (3 μM ATP) or AA2 (1000 μM ATP), not stated per value
[8] = compound at 500 nM or 1 mM, 90 μM ATP
[9] = method AA1 (30 μM ATP) or AA2 (1000 μM ATP), not stated per value
[10] = compound at a concentration of 500 nM or 1 mM (not specified), cells shown as percentage
[11] = percentage inhibition of the example compound at a concentration of 500 nM or 1 mM (not specified which)

T3 sequence (Q9UM73 19-1620): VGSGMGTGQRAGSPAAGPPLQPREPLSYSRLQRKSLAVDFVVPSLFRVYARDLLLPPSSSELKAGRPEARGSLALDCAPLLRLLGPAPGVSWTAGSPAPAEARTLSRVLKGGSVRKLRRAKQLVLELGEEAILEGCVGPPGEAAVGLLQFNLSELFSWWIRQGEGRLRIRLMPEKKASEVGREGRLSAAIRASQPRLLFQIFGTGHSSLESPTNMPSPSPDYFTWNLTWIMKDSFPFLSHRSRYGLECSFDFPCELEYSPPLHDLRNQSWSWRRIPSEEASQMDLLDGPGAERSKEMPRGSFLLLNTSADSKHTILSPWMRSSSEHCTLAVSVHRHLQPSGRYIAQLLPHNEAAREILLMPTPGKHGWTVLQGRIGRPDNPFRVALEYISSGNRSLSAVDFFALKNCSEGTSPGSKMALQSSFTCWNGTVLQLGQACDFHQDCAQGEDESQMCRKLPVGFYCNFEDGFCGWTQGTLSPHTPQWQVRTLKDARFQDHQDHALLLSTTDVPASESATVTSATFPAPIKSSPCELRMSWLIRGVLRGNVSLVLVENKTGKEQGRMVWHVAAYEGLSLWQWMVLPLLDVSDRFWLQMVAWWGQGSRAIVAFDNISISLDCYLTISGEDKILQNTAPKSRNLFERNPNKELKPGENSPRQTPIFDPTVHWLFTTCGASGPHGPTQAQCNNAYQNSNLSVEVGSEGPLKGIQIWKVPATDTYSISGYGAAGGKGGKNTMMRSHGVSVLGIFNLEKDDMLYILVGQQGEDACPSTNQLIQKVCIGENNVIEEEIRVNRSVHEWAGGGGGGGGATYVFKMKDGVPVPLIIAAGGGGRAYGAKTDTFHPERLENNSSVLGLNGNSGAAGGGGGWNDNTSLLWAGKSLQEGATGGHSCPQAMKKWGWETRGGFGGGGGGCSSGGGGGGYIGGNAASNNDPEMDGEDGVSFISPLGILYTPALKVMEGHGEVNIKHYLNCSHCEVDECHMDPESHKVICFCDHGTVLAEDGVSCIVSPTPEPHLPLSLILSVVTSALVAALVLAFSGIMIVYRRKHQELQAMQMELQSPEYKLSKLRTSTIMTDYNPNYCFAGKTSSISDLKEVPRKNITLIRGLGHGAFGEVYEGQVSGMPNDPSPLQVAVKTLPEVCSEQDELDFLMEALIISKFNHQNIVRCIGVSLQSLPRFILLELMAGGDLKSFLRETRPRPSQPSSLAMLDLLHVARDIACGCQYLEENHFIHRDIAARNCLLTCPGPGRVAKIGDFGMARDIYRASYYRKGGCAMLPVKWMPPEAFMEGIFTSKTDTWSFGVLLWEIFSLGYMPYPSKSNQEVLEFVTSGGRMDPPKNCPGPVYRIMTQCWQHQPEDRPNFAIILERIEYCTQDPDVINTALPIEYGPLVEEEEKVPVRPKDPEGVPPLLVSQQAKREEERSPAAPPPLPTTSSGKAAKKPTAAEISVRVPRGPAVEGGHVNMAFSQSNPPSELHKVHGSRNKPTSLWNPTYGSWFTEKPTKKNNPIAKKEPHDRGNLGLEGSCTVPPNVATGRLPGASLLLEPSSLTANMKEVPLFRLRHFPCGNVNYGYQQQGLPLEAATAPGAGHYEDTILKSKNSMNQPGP
T1 sequence (P23458 849-1154): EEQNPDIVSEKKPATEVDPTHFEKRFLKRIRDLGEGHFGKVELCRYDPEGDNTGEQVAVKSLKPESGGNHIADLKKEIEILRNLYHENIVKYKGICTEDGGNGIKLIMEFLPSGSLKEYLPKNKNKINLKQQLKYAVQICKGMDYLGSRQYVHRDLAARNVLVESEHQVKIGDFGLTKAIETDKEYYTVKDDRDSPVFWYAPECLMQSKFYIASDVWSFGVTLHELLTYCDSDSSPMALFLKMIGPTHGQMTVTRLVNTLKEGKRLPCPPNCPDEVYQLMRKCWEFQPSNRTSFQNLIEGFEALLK
T4 sequence (O60674 828-1132): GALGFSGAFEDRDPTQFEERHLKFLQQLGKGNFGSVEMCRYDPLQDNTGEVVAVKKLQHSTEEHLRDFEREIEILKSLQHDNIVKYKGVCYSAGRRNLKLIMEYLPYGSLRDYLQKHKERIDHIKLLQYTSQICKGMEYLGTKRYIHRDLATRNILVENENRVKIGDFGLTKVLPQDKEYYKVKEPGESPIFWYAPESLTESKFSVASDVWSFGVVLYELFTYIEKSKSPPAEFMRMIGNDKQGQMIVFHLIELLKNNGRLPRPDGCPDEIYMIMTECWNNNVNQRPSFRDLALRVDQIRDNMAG
TYK2, sequence (P29597 whole entry): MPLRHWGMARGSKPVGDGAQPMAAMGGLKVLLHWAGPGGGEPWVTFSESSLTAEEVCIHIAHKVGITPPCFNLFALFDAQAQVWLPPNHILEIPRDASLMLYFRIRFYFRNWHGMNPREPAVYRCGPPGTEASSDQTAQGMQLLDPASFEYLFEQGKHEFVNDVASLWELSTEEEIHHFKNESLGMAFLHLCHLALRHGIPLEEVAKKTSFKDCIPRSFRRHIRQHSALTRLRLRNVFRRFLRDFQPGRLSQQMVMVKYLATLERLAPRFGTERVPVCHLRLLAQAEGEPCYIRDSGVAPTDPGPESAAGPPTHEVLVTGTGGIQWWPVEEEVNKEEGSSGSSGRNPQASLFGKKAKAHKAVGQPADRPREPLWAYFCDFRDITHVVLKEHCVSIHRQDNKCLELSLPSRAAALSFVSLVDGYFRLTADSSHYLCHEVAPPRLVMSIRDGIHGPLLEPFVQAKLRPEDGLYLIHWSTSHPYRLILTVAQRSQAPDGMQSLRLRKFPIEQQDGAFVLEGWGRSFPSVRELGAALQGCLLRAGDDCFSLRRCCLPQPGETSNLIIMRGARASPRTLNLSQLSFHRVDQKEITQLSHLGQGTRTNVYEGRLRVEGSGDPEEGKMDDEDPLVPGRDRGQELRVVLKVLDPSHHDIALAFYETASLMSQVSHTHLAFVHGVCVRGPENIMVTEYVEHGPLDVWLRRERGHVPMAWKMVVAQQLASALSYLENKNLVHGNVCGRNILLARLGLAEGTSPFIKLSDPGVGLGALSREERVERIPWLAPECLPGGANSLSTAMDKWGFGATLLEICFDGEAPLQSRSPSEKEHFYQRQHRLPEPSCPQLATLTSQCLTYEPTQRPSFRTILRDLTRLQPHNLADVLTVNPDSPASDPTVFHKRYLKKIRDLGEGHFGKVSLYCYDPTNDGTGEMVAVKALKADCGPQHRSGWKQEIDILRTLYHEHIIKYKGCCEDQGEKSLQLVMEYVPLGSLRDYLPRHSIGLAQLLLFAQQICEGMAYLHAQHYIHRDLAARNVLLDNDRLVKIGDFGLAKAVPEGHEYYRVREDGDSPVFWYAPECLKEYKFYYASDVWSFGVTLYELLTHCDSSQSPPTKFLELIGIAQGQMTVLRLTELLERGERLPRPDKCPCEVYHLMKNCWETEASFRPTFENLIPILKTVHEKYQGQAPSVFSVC
T2 sequence (P52333 781-1124): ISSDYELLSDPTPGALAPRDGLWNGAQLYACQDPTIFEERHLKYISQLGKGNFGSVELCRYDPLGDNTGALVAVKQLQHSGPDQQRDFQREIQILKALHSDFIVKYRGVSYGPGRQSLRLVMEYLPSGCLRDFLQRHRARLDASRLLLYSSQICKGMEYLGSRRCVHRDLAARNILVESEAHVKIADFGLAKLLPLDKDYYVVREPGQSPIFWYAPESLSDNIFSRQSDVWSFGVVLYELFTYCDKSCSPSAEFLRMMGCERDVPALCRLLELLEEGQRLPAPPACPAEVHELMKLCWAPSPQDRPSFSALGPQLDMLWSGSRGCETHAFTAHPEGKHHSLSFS

Structure (SMILES): Cc1ccc(S(=O)(=O)Nc2ccc3cc2CCc2cccc(c2)Nc2ncc(Cl)c(n2)N3)cc1 [Example B150, N-[6-Chloro-2,4,8,22-tetraazatetracyclo[14.3.1.1(3,7).1(9,13)]docosa-1(20), 3(22),4,6,9(21),10,12,16,18-nonaen-12-yl]-4-methylbenzenesulfonamide trifluoroacetate]
- IC50 ([1]; Table B1): 0.41 nM
- IC50 ([2]; Table B1): 6.3 nM
- IC50 [3, 5]: 180 nM
- IC50 ([4]; Table B1): 0.15 nM
- IC50 (TYK2; Table B1): 0.86 nM

Structure (SMILES): O=C(CC1CCN(C(=O)Nc2cccc(F)c2)CC1)Nc1ccc2cc1CCc1cncc(c1)Nc1ncc(Cl)c(n1)N2 [Example A147, 4-(2-{[6-Chloro-2,4,8,18,22-pentaazatetracyclo[14.3.1.1(3,7).1(9,13)]docosa-1(20),3(22),4,6,9(21),10,12,16,18-nonaen-12-yl]amino}-2-oxoethyl)-N-(3-fluorophenyl)piperidine-1-carboxamide bis(trifluoroacetate)]
- IC50 [1, 6]: 0.3 nM
- IC50 [2, 7]: > 100 nM
- ALK % of inhibition at a concentration of 500 nM or 1 mM [3, 8]: 46%
- IC50 [4, 9]: 1.9 nM
- IC50 (TYK2): 7.4 nM

Structure (SMILES): CN1CC[C@H](NC(=O)Nc2ccc3cc2CCc2cccc(c2)Nc2ncc(Cl)c(n2)N3)C1 [Example B261, N-[6-Chloro-2,4,8,22-tetraazatetracyclo[14.3.1.1(3,7).1(9,13)]docosa-1(20),3(22),4,6,9(21),10,12,16,18-nonaen-12-yl]-N′-[(3S)-1-methylpyrrolidin-3-yl]urea bis(trifluoroacetate)]
- IC50 ([1]; Table B1): 9.5 nM
- IC50 ([2]; Table B1): 81 nM
- ALK % of inhibition at a concentration of 500 nM or 1 mM [3, 10]: 24%
- IC50 ([4]; Table B1): 29 nM
- IC50 (TYK2; Table B1): 81 nM

Structure (SMILES): O=S1(=O)CCc2cccc(c2)Nc2ncc(Cl)c(n2)Nc2cccc1c2 [Example D24, 6-chloro-14-thia-2,4,8,23-tetraazatetracyclo[15.3.1.1(3,7).1(9,13)]tricosa-1(21),3(23),4,6,9(22),10,12,17,19-nonaene 14,14-dioxide trifluoroacetate]
- IC50 ([1]; Table D1): 5 nM
- IC50 ([2]; Table D1): 20 nM
- IC50 ([3]; Table D1, 90 μM ATP): 1370 nM
- IC50 ([4]; Table D1): 6 nM
- IC50 (TYK2; Table D1): 16 nM

Structure (SMILES): O=C(Nc1ccccc1Cl)Nc1ccc2cc1CCc1cccc(c1)Nc1ncc(Cl)c(n1)N2 [Example B84, N-(2-Chlorophenyl)-N′-[6-chloro-2,4,8,22-tetraazatetracyclo[14.3.1.1(3,7).1(9,13)]docosa-1(20),3(22),4,6,9(21),10,12,16,18-nonaen-12-yl]urea trifluoroacetate]
- IC50 ([1]; Table B1): 0.39 nM
- IC50 ([2]; Table B1): 9.7 nM
- IC50 [3, 5]: 730 nM
- IC50 ([4]; Table B1): 1.3 nM
- IC50 (TYK2; Table B1): 4.2 nM

Structure (SMILES): Clc1cnc2nc1Nc1cccc(c1)OCCc1cc(cc(-c3cccnc3)c1)N2 [Example D26, 6-Chloro-19-pyridin-3-yl-14-oxa-2,4,8,23-tetraazatetracyclo[15.3.1.1(3,7).1(9,13)]tricosa-1(21),3(23),4,6,9(22),10,12,17,19-nonaene bis(trifluoroacetate)]
- IC50 ([1]; Table D1): 1.2 nM
- IC50 ([2]; Table D1): 8.5 nM
- IC50 ([3]; Table D1, 90 μM ATP): 138 nM
- IC50 ([4]; Table D1): 0.6 nM
- IC50 (TYK2; Table D1): 2.7 nM

Structure (SMILES): O=C1Nc2cccc(c2)Nc2ncc(Cl)c(n2)Nc2cccc1c2 [Example C1, 6-Chloro-2,4,8,15,22-pentaazatetracyclo[14.3.1.1(3,7).1(9,13)]docosa-1(20),3(22),4,6,9(21),10,12,16,18-nonaen-14-one hydrochloride]
- IC50 [1]: > 1000 nM
- IC50 [2]: > 1000 nM
- IC50 [3]: > 10000 nM
- IC50 [4]: 900 nM
- IC50 (TYK2): > 1000 nM

Structure (SMILES): O=C(Nc1ccc2cc1CCc1cncc(c1)Nc1ncc(Cl)c(n1)N2)N1CCC(c2cnccn2)C1 (stereo not shown) [Example B313, N-[6-Chloro-2,4,8,18,22-pentaazatetracyclo[14.3.1.1(3,7).1(9,13)]docosa-1(20),3(22),4,6,9(21),10,12,16,18-nonaen-12-yl]-3-pyrazin-2-ylpyrrolidine-1-carboxamide tetrakis(trifluoroacetate)]
- IC50 ([1]; Table B1): 48 nM
- IC50 ([2]; Table B1): > 400 nM
- ALK % of inhibition at a concentration of 500 nM or 1 mM [3, 11]: 20%
- IC50 ([4]; Table B1): 371 nM
- IC50 (TYK2; Table B1): > 400 nM

Structure (SMILES): Clc1cnc2nc1Nc1ccc(-c3cn[nH]c3)c(c1)CCc1cncc(c1)N2 [Example B350, 6-Chloro-12-(1H-pyrazol-4-yl)-2,4,8,18,22-pentaazatetracyclo[14.3.1.1(3,7).1(9,13)]docosa-1(20),3(22),4,6,9(21),10,12,16,18-nonaene tris(trifluoroacetate)]
- IC50 ([1]; Table B1): 90 nM
- IC50 ([2]; Table B1): > 400 nM
- ALK % of inhibition at a concentration of 500 nM or 1 mM [3, 11]: 58%
- IC50 ([4]; Table B1): 66 nM
- IC50 (TYK2; Table B1): 244 nM

Structure (SMILES): O=C(c1cc2cc(c1)OCCSc1cccc(c1)Nc1nc(ncc1Cl)N2)N1CCN(c2ccccc2)CC1 [Example D53, 6-Chloro-20-[(4-phenylpiperazin-1-yl)carbonyl]-17-oxa-14-thia-2,4,8,24-tetraazatetracyclo[16.3.1.1(3,7).1(9,13)]tetracosa-1(22),3(24),4,6,9(23),10,12,18,20-nonaene bis(trifluoroacetate)]
- IC50 ([1]; Table D1): 27 nM
- IC50 ([2]; Table D1): 273 nM
- IC50 ([3]; Table D1, 90 μM ATP): 1150 nM
- IC50 ([4]; Table D1): 34 nM
- IC50 (TYK2; Table D1): 28 nM

Structure (SMILES): O=C(Nc1cc2cc(c1)OCCSc1cccc(c1)Nc1nc(ncc1Cl)N2)c1cccs1 [Example D63, N-[6-Chloro-17-oxa-14-thia-2,4,8,24-tetraazatetracyclo[16.3.1.1(3,7).1(9,13)]tetracosa-1(22),3(24),4,6,9(23),10,12,18,20-nonaen-20-yl]thiophene-2-carboxamide trifluoroacetate]
- IC50 ([1]; Table D1): 6.8 nM
- IC50 ([2]; Table D1): 19 nM
- IC50 ([3]; Table D1, 90 μM ATP): 610 nM
- IC50 ([4]; Table D1): 1.5 nM
- IC50 (TYK2; Table D1): 5.4 nM

Structure (SMILES): O=C(NCCNC(=O)c1ccccn1)Nc1ccc2cc1CCc1cccc(c1)Nc1ncc(Cl)c(n1)N2 [Example B190, N-{2-[({[6-Chloro-2,4,8,22-tetraazatetracyclo[14.3.1.1(3,7).1(9,13)]docosa-1(20),3(22),4,6,9(21),10,12,16,18-nonaen-12-yl]amino}carbonyl)amino]ethyl}pyridine-2-carboxamide trifluoroacetate]
- IC50 ([1]; Table B1): 5 nM
- IC50 ([2]; Table B1): 61 nM
- ALK % of inhibition at a concentration of 500 nM or 1 mM [3, 10]: 11%
- IC50 ([4]; Table B1): 10 nM
- IC50 (TYK2; Table B1): 19 nM

Structure (SMILES): CS(=O)(=O)N1CCN(C(=O)Nc2ccc3cc2CCc2cncc(c2)Nc2ncc(Cl)c(n2)N3)CC1 [Example B318, N-[6-Chloro-2,4,8,18,22-pentaazatetracyclo[14.3.1.1(3,7).1(9,13)]docosa-1(20),3(22),4,6,9(21),10,12,16,18-nonaen-12-yl]-4-(methylsulfonyl)piperazine-1-carboxamide bis(trifluoroacetate)]
- IC50 ([1]; Table B1): 24 nM
- IC50 ([2]; Table B1): > 400 nM
- ALK % of inhibition at a concentration of 500 nM or 1 mM [3, 11]: 61%
- IC50 ([4]; Table B1): 371 nM
- IC50 (TYK2; Table B1): 70 nM

Structure (SMILES): O=C(Nc1ccc2cc1CCc1cccc(c1)Nc1ncc(Cl)c(n1)N2)N[C@H]1CCN(C(=O)C2CC2)C1 [Example B228, N-[6-Chloro-2,4,8,22-tetraazatetracyclo[14.3.1.1(3,7).1(9,13)]docosa-1(20),3(22),4,6,9(21),10,12,16,18-nonaen-12-yl]-N′-[(3S)-1-(cyclopropylcarbonyl)pyrrolidin-3-yl]urea trifluoroacetate]
- IC50 ([1]; Table B1): 6 nM
- IC50 ([2]; Table B1): 63 nM
- ALK % of inhibition at a concentration of 500 nM or 1 mM [3, 10]: 10%
- IC50 ([4]; Table B1): 11 nM
- IC50 (TYK2; Table B1): 19 nM

Structure (SMILES): O=C(CC1CCN(C(=O)c2ccccc2)CC1)Nc1ccc2cc1CCc1cncc(c1)Nc1ncc(Cl)c(n1)N2 [Example A192, 2-(1-Benzoylpiperidin-4-yl)-N-[6-chloro-2,4,8,18,22-pentaazatetracyclo[14.3.1.1(3,7).1(9,13)]docosa-1(20),3(22),4,6,9(21),10,12,16,18-nonaen-12-yl]acetamide bis(trifluoroacetate)]
- IC50 [1, 6]: 21 nM
- IC50 [2, 7]: > 200 nM
- ALK % of inhibition at a concentration of 500 nM or 1 mM [3, 8]: 31%
- IC50 [4, 9]: > 200 nM
- IC50 (TYK2): > 200 nM

Structure (SMILES): N#Cc1ccc(NC(=O)N2CCN(C(=O)COc3ccc4cc3CCc3cccc(c3)Nc3ncc(Cl)c(n3)N4)CC2)cc1 [Example A9, 4-({[6-Chloro-2,4,8,22-tetraazatetracyclo[14.3.1.1(3,7).1(9,13)]docosa-1(20),3(22),4,6,9(21),10,12,16,18-nonaen-12-yl]oxy}acetyl)-N-(4-cyanophenyl)piperazine-1-carboxamide trifluoroacetate]
- IC50 [1, 6]: 9.1 nM
- IC50 [2, 7]: 67 nM
- ALK % of inhibition at a concentration of 500 nM or 1 mM [3, 8]: 0%
- IC50 [4, 9]: 19 nM
- IC50 (TYK2): 22 nM

Structure (SMILES): CCS(=O)(=O)N1CCC(CC(=O)Nc2ccc3cc2CCc2cccc(c2)Nc2ncc(Cl)c(n2)N3)CC1 [Example A83, N-[6-Chloro-2,4,8,22-tetraazatetracyclo[14.3.1.1(3,7).1(9,13)]docosa-1(20),3(22),4,6,9(21),10,12,16,18-nonaen-12-yl]-2-[1-(ethylsulfonyl)piperidin-4-yl]acetamide trifluoroacetate]
- IC50 [1, 6]: 1.9 nM
- IC50 [2, 7]: 12 nM
- ALK % of inhibition at a concentration of 500 nM or 1 mM [3, 8]: 41%
- IC50 [4, 9]: 2.5 nM
- IC50 (TYK2): 2.5 nM
